Measured values taken from the NIST ThermoML archive (doi:10.1021/je900387e).
± gives the expanded uncertainty stated by the source.

Test: xn = mol fraction of the nth substance listed
Conditions: Liquid, Pycnometric method

CCCCCl [1-chlorobutane] + O=C=O
mass density [kg/m3]
Conditions	308.2 K	313.1 K
6210 kPa, x1 = 0.1488	843 ± 4	–
6560 kPa, x1 = 0.0981	819 ± 4	–
6560 kPa, x1 = 0.1488	848 ± 4	–
6760 kPa, x1 = 0.1488	–	825 ± 4
6790 kPa, x1 = 0.0981	825 ± 4	–
6850 kPa, x1 = 0.1488	853 ± 4	–
6910 kPa, x1 = 0.0744	786 ± 4	–
6980 kPa, x1 = 0.0981	827 ± 4	–
6980 kPa, x1 = 0.1488	–	828 ± 4
7080 kPa, x1 = 0.0744	791 ± 4	–
7130 kPa, x1 = 0.0981	–	791 ± 4
7140 kPa, x1 = 0.0981	831 ± 4	–
7240 kPa, x1 = 0.0483	742 ± 4	–
7250 kPa, x1 = 0.1488	858 ± 4	–
7310 kPa, x1 = 0.0981	–	795 ± 4
7310 kPa, x1 = 0.1488	–	832 ± 4
7320 kPa, x1 = 0.0981	834 ± 4	–
7330 kPa, x1 = 0.0483	747 ± 4	–
7430 kPa, x1 = 0.0483	752 ± 4	–
7460 kPa, x1 = 0.0744	–	754 ± 4
7470 kPa, x1 = 0.0744	801 ± 4	–
7500 kPa, x1 = 0.0981	837 ± 4	–
7530 kPa, x1 = 0.0483	757 ± 4	–
7570 kPa, x1 = 0.0981	–	802 ± 4
7640 kPa, x1 = 0.0243	670 ± 4	–
7640 kPa, x1 = 0.0744	–	759 ± 4
7660 kPa, x1 = 0.0483	761 ± 4	–
7670 kPa, x1 = 0.0243	674 ± 4	–
7700 kPa, x1 = 0.0744	807 ± 4	–
7710 kPa, x1 = 0.0243	678 ± 4	–
7730 kPa, x1 = 0.0981	840 ± 4	–
7740 kPa, x1 = 0.0243	682 ± 4	–
7740 kPa, x1 = 0.1488	863 ± 4	837 ± 4
7770 kPa, x1 = 0.0744	–	764 ± 4
7780 kPa, x1 = 0.0243	686 ± 4	–
7790 kPa, x1 = 0.0483	766 ± 4	–
7820 kPa, x1 = 0.0243	690 ± 4	–
7860 kPa, x1 = 0.0243	694 ± 4	–
7860 kPa, x1 = 0.0981	–	807 ± 4
7890 kPa, x1 = 0.0483	–	693 ± 4
7940 kPa, x1 = 0.0243	701 ± 4	–
7940 kPa, x1 = 0.0483	770 ± 4	697 ± 4
7940 kPa, x1 = 0.0744	–	769 ± 4
7940 kPa, x1 = 0.0981	843 ± 4	–
7950 kPa, x1 = 0.0744	812 ± 4	–
8000 kPa, x1 = 0.0483	–	701 ± 4
8030 kPa, x1 = 0.0243	707 ± 4	–
8070 kPa, x1 = 0.0744	814 ± 4	–
8090 kPa, x1 = 0.0744	–	773 ± 4
8100 kPa, x1 = 0.0483	–	707 ± 4
8110 kPa, x1 = 0.0483	776 ± 4	–
8120 kPa, x1 = 0.0243	713 ± 4	–
8170 kPa, x1 = 0.0981	846 ± 4	–
8180 kPa, x1 = 0.0981	–	813 ± 4
8190 kPa, x1 = 0.1488	–	841 ± 4
8210 kPa, x1 = 0.0483	–	713 ± 4
8220 kPa, x1 = 0.0243	–	545 ± 4
8230 kPa, x1 = 0.0243	720 ± 4	549 ± 4
8230 kPa, x1 = 0.0744	817 ± 4	–
8250 kPa, x1 = 0.0243	–	555 ± 4
8270 kPa, x1 = 0.0744	–	778 ± 4
8280 kPa, x1 = 0.0243	–	563 ± 4
8280 kPa, x1 = 0.0483	780 ± 4	–
8290 kPa, x1 = 0.1488	868 ± 4	–
8300 kPa, x1 = 0.0243	–	571 ± 4
8330 kPa, x1 = 0.0243	–	580 ± 4
8340 kPa, x1 = 0.0483	–	719 ± 4
8350 kPa, x1 = 0.0243	727 ± 4	–
8350 kPa, x1 = 0.0744	820 ± 4	–
8360 kPa, x1 = 0.0243	–	588 ± 4
8390 kPa, x1 = 0.0981	849 ± 4	–
8400 kPa, x1 = 0.0243	–	597 ± 4
8450 kPa, x1 = 0.0483	–	725 ± 4
8470 kPa, x1 = 0.0243	–	610 ± 4
8470 kPa, x1 = 0.0483	785 ± 4	–
8470 kPa, x1 = 0.0744	–	782 ± 4
8480 kPa, x1 = 0.0243	734 ± 4	–
8500 kPa, x1 = 0.0744	822 ± 4	–
8510 kPa, x1 = 0.0981	–	819 ± 4
8550 kPa, x1 = 0.0243	–	623 ± 4
8560 kPa, x1 = 0.0483	788 ± 4	–
8570 kPa, x1 = 0.0243	738 ± 4	–
8600 kPa, x1 = 0.0483	–	732 ± 4
8630 kPa, x1 = 0.0981	852 ± 4	–
8640 kPa, x1 = 0.0744	825 ± 4	–
8650 kPa, x1 = 0.0243	–	637 ± 4
8670 kPa, x1 = 0.0483	790 ± 4	–
8680 kPa, x1 = 0.0744	–	787 ± 4
8760 kPa, x1 = 0.0483	–	738 ± 4
8770 kPa, x1 = 0.0243	–	651 ± 4
8770 kPa, x1 = 0.0483	793 ± 4	–
8800 kPa, x1 = 0.0243	748 ± 4	–
8830 kPa, x1 = 0.0744	828 ± 4	–
8840 kPa, x1 = 0.1488	873 ± 4	–
8890 kPa, x1 = 0.0483	795 ± 4	–
8890 kPa, x1 = 0.0981	–	825 ± 4
8900 kPa, x1 = 0.0744	–	792 ± 4
8900 kPa, x1 = 0.0981	856 ± 4	–
8910 kPa, x1 = 0.0243	753 ± 4	–
8910 kPa, x1 = 0.1488	–	849 ± 4
8930 kPa, x1 = 0.0243	–	666 ± 4
8940 kPa, x1 = 0.0483	–	745 ± 4
8970 kPa, x1 = 0.0744	830 ± 4	–
9000 kPa, x1 = 0.0483	798 ± 4	–
9050 kPa, x1 = 0.0243	758 ± 4	–
9120 kPa, x1 = 0.0483	800 ± 4	–
9130 kPa, x1 = 0.0243	–	682 ± 4
9150 kPa, x1 = 0.0483	–	751 ± 4
9150 kPa, x1 = 0.0744	–	797 ± 4
9160 kPa, x1 = 0.0744	833 ± 4	–
9160 kPa, x1 = 0.0981	859 ± 4	–
9190 kPa, x1 = 0.0243	763 ± 4	–
9230 kPa, x1 = 0.0483	803 ± 4	–
9260 kPa, x1 = 0.0981	–	830 ± 4
9330 kPa, x1 = 0.0744	836 ± 4	–
9350 kPa, x1 = 0.0483	805 ± 4	–
9370 kPa, x1 = 0.0483	–	759 ± 4
9390 kPa, x1 = 0.0243	–	698 ± 4
9410 kPa, x1 = 0.0744	–	802 ± 4
9450 kPa, x1 = 0.0981	862 ± 4	–
9450 kPa, x1 = 0.1488	–	853 ± 4
9480 kPa, x1 = 0.1488	878 ± 4	–
9490 kPa, x1 = 0.0483	808 ± 4	–
9530 kPa, x1 = 0.0744	838 ± 4	–
9620 kPa, x1 = 0.0483	–	765 ± 4
9640 kPa, x1 = 0.0483	811 ± 4	–
9670 kPa, x1 = 0.0744	–	807 ± 4
9700 kPa, x1 = 0.0744	841 ± 4	–
9710 kPa, x1 = 0.0243	–	716 ± 4
9720 kPa, x1 = 0.0981	–	837 ± 4
9780 kPa, x1 = 0.0483	813 ± 4	–
9780 kPa, x1 = 0.0981	865 ± 4	–
9810 kPa, x1 = 0.0483	–	770 ± 4
9910 kPa, x1 = 0.0483	815 ± 4	–
9940 kPa, x1 = 0.0744	844 ± 4	–
9960 kPa, x1 = 0.0744	–	812 ± 4
10000 kPa, x1 = 0.0483	–	775 ± 4
10020 kPa, x1 = 0.0243	–	729 ± 4
10030 kPa, x1 = 0.0981	869 ± 4	–
10110 kPa, x1 = 0.0744	846 ± 4	–
10150 kPa, x1 = 0.1488	883 ± 4	–
10190 kPa, x1 = 0.0981	–	843 ± 4
10220 kPa, x1 = 0.0483	–	780 ± 4
10270 kPa, x1 = 0.1488	–	860 ± 4
10280 kPa, x1 = 0.0243	–	738 ± 4
10290 kPa, x1 = 0.0744	–	817 ± 4
10380 kPa, x1 = 0.0981	872 ± 4	–
10460 kPa, x1 = 0.0483	–	785 ± 4
10510 kPa, x1 = 0.0981	874 ± 4	–
10550 kPa, x1 = 0.0243	–	748 ± 4
10620 kPa, x1 = 0.0744	–	823 ± 4
10680 kPa, x1 = 0.0483	–	790 ± 4
10690 kPa, x1 = 0.0981	–	849 ± 4
10700 kPa, x1 = 0.0243	–	753 ± 4
10850 kPa, x1 = 0.0243	–	758 ± 4
10850 kPa, x1 = 0.1488	888 ± 4	–
10860 kPa, x1 = 0.1488	–	865 ± 4
10950 kPa, x1 = 0.0483	–	795 ± 4
11620 kPa, x1 = 0.1488	893 ± 4	–
12430 kPa, x1 = 0.1488	898 ± 4	–
13270 kPa, x1 = 0.1488	904 ± 4	–
13660 kPa, x1 = 0.1488	906 ± 4	–
14090 kPa, x1 = 0.1488	909 ± 4	–
14420 kPa, x1 = 0.1488	911 ± 4	–
14870 kPa, x1 = 0.1488	914 ± 4	–
